# Source: patent publication US20240350493A1 (Kadmon Corporation, LLC, priority 2022, published 2024)
# Like-named read-outs stand apart in the source and are kept apart here.
# Assays:
# [1] = target: CYP2D6 (Homo sapiens, UniProt P10635); experiment: incubations with recombinant enzymes; type: in vitro ADME
# [2] = relative bioavailability/food effect study, tablet and capsule (KD025-106); type: in vivo, human; conditions: for AUC(0-t) / AUC(0-inf) / Cmax / Tmax / half-life: male, human, plasma, oral, 200 mg
# Protocol: Both studies were single-center, open-label, randomized, single dose crossover studies in healthy males.
# In the second, relative bioavailability/food effect study, both the marketed tablets and earlier formulation capsules were investigated.
# For Treatments B and C, before dosing, subjects consumed a high-fat breakfast consisting of a hash brown, bacon, fried egg, white bread, and 240 mL of full fat milk over 25 minutes. […] All subjects were to receive each treatment, with at least a 6-day washout between each period. Water was permitted ad libitum in all study periods, besides for 1 hour pre-and post-dose.
# In both studies, serial blood samples for PK analysis were collected at pre-dose and 1, 2, 4, 6, 8, 12, 16, 24, and 36 hours post-dose. An additional sample at 30 hours post-dose was collected in the first study; additional samples were collected 3, 5, and 48 hours post-dose in the second study. Blood samples (5-6 mL per sample) were collected in K3EDTA tubes on ice and were processed within 30 minutes of collection, then frozen at approximately-70 to −80° C. shortly after collection.
# Sample preparation was performed by protein precipitation.
# Statistical analyses were performed in SAS using the PROC MIXED procedure and the Restricted Maximum Likelihood estimation method. In both studies, the presence of a food effect was evaluated by a formal statistical analysis on natural log-transformed AUC and Cmax using mixed effect modeling techniques. The model included treatment, period, and sequence as fixed effects and subject nested within sequence as a random effect. Adjusted geometric mean ratios (GMRs) and their 90% confidence intervals (CIs) were calculated for fed (test) versus fasted (reference) treatments. The absence of a food effect was to be concluded if the 90% CI was within the bioequivalence limits of 80.00 to 125.00%.
# To assess relative bioavailability between formulations in the second study, the same analysis was performed for tablets (test) versus capsules (reference), both in the fed state. For both studies, all subjects who received at least one dose of study drug and had post-dose PK data available were included in the PK population
# [3] = target: BCRP (Homo sapiens, UniProt Q9UNQ0); experiment: transporter inhibition, in vitro; type: in vitro ADME; conditions: at clinically relevant concentrations
# [4] = target: UGT1A1 (Homo sapiens, UniProt P22309); experiment: enzyme inhibition, in vitro; type: in vitro ADME
# [5] = tested on: pregnant rabbits; conditions: female, rabbit, in vivo, po
# [6] = target: OATPIB1 (Homo sapiens, UniProt Q9Y6L6); experiment: transporter inhibition, in vitro; type: in vitro ADME; conditions: at clinically relevant concentrations
# [7] = 200 mg tablet, high-fat breakfast
# Sequence of UGT1A1 (P22309 26-533): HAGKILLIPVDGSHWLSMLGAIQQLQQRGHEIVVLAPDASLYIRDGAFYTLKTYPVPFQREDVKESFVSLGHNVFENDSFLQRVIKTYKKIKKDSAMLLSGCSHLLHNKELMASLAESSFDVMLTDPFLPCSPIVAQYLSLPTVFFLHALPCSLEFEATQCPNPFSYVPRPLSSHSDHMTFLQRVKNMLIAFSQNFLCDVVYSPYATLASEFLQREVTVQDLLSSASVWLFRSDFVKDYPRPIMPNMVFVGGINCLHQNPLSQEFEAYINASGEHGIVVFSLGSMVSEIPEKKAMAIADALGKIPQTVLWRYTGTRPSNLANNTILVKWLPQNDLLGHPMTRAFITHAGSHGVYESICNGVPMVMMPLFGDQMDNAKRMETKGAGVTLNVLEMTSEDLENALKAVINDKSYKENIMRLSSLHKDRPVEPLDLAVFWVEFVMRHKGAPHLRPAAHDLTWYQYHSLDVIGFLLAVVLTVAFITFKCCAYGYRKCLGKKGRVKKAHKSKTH
# Sequence of CYP2D6 (P10635 whole entry): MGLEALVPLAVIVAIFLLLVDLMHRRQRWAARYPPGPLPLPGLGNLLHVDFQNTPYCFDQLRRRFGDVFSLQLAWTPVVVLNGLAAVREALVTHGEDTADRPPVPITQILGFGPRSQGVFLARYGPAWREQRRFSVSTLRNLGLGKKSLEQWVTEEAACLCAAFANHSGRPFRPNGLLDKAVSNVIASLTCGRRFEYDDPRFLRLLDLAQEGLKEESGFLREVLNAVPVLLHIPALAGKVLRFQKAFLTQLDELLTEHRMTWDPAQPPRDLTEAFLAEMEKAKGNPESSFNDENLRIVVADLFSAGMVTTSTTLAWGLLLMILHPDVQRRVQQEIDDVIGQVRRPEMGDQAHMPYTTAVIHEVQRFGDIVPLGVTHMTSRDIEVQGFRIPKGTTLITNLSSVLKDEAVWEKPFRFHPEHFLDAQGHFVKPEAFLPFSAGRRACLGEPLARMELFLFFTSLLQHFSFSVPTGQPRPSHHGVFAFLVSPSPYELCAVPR
# Sequence of OATPIB1 (Q9Y6L6 whole entry): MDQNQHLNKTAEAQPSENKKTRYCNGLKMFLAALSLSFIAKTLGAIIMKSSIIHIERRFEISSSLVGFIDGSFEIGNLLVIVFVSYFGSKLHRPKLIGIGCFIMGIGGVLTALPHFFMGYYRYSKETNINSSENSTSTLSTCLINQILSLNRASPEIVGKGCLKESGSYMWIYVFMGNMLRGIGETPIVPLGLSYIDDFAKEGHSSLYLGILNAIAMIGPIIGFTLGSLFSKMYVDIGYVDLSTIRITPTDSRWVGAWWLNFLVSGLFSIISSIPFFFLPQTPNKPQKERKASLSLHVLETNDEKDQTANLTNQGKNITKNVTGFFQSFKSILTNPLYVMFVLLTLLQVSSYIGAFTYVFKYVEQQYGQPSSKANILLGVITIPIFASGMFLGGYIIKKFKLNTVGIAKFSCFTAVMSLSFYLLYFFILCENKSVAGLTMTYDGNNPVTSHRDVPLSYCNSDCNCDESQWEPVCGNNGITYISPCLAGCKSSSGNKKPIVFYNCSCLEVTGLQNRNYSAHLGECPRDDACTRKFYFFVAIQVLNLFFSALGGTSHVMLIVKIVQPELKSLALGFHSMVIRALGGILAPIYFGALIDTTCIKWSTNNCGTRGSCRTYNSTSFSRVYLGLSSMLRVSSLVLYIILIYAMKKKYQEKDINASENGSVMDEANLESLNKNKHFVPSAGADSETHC
# Sequence of BCRP (Q9UNQ0 whole entry): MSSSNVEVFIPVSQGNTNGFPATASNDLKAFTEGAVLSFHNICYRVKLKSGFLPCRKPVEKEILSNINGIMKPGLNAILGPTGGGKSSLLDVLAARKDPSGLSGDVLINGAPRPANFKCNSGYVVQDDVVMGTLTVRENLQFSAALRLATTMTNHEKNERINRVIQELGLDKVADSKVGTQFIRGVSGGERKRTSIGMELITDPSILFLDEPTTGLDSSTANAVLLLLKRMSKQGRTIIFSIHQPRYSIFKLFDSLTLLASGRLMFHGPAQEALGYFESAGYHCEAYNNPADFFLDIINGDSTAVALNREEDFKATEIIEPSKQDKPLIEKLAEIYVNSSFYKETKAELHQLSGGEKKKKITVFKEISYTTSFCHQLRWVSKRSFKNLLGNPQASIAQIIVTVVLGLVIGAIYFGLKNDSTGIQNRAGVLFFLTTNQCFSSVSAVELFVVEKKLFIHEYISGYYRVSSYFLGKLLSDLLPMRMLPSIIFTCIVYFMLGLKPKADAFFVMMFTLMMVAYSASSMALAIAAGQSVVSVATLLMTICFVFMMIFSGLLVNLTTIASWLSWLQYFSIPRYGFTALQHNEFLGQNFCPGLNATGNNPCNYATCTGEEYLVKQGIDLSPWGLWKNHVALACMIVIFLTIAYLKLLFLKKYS
compound,measurement,setting,value
"CC(C)NC(=O)COc1cccc(-c2nc(Nc3ccc4[nH]ncc4c3)c3ccccc3n2)c1 [Belumosudil, 2-{3-[4-(1H-indazol-5-ylamino)-2-quinazolinyl]phenoxy}-N-(propan-2-yl) acetamide]",share of belumosudil metabolism,[1],21.7%
same,reduction of inter-subject variability in exposure with food,[2]; 200 mg tablet,approximately 60%
same,"AUC% extrap, arithmetic mean (SD)","[2]; 200 mg tablet, fasted",8.38 (9.05) %
same,"AUC% extrap, geometric mean (geometric CV %)","[2]; 200 mg tablet, fasted",6.02 (90.8); %
same,"AUC% extrap, arithmetic mean (SD)","[2]; 200 mg tablet, fed",1.71 (0.71) %
same,"AUC% extrap, geometric mean (geometric CV %)","[2]; 200 mg tablet, fed",1.55 (50.3); %
same,AUCinf fed as % of fasted,[2]; [7],180%
same,Cmax fed as % of fasted,[2]; [7],225%
same,AUC(0-t),"[2]; 200 mg tablet, fasted, read-out: AUC0-24, arithmetic mean (SD)",5400 ng·h/mL
same,AUC(0-t),"[2]; 200 mg tablet, fasted, read-out: AUC0-24, geometric mean (geometric CV %)",4250 ng·h/mL
same,AUC(0-inf),"[2]; 200 mg tablet, fasted, read-out: AUCinf, arithmetic mean (SD)",6670 ng·h/mL
same,AUC(0-inf),"[2]; 200 mg tablet, fasted, read-out: AUCinf, geometric mean (geometric CV %)",4910 ng·h/mL
same,AUC(0-t),"[2]; 200 mg tablet, fasted, read-out: AUClast, arithmetic mean (SD)",5830 ng·h/mL
same,AUC(0-t),"[2]; 200 mg tablet, fasted, read-out: AUClast, geometric mean (geometric CV %)",4520 ng·h/mL
same,Cmax,"[2]; 200 mg tablet, fasted, read-out: Cmax, arithmetic mean (SD)",1110 ng/mL
same,Cmax,"[2]; 200 mg tablet, fasted, read-out: Cmax, geometric mean (geometric CV %)",821 ng/mL
same,Tmax,"[2]; 200 mg tablet, fasted, read-out: Tmax, median (range)",2 h
same,half-life,"[2]; 200 mg tablet, fasted, read-out: t1/2, arithmetic mean (SD) (converted)",12.2 h
same,half-life,"[2]; 200 mg tablet, fasted, read-out: t1/2, geometric mean (geometric CV %) (converted)",11.2 h
same,AUC(0-t),"[2]; 200 mg tablet, fed, read-out: AUC0-24, arithmetic mean (SD)",10600 ng·h/mL
same,AUC(0-t),"[2]; 200 mg tablet, fed, read-out: AUC0-24, geometric mean (geometric CV %)",9580 ng·h/mL
same,AUC(0-inf),"[2]; 200 mg tablet, fed, read-out: AUCinf, arithmetic mean (SD)",11300 ng·h/mL
same,AUC(0-inf),"[2]; 200 mg tablet, fed, read-out: AUCinf, geometric mean (geometric CV %)",10100 ng·h/mL
same,AUC(0-t),"[2]; 200 mg tablet, fed, read-out: AUClast, arithmetic mean (SD)",10800 ng·h/mL
same,AUC(0-t),"[2]; 200 mg tablet, fed, read-out: AUClast, geometric mean (geometric CV %)",9750 ng·h/mL
same,Cmax,"[2]; 200 mg tablet, fed, read-out: Cmax, arithmetic mean (SD)",2320 ng/mL
same,Cmax,"[2]; 200 mg tablet, fed, read-out: Cmax, geometric mean (geometric CV %)",2100 ng/mL
same,Tmax,"[2]; 200 mg tablet, fed, read-out: Tmax, median (range)",2.5 h
same,half-life,"[2]; 200 mg tablet, fed, read-out: t1/2, arithmetic mean (SD) (converted)",7.59 h
same,half-life,"[2]; 200 mg tablet, fed, read-out: t1/2, geometric mean (geometric CV %) (converted)",6.98 h
same,Tmax,"[2]; 200 mg tablet, read-out: delay in Tmax with fed administration",0.5 h
same,exposure (Cmax and AUC) higher for tablet versus capsule,"[2]; single dose 200 mg, fed state",17-19%
same,BCRP inhibition,[3],inhibits
same,UGT1A1 inhibition,[4],inhibitor
same,doses with embryo-fetal effects,[5],≥ 50 mg/kg/day
same,doses with maternal toxicity (body weight loss and mortality),[5],≥ 125 mg/kg/day
same,OATPIB1 inhibition,[6],inhibits
